Laboratory results from ChEMBL document CHEMBL1201862, “PubChem BioAssay data set” (2004).
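Results reflect a 48-hour exposure of cells in 96-well plates to compound at five concentrations. The concentration for 50% growth inhibition is given as GI50.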 The source made the active and inactive calls. Cut-off read from the data, not from the text of the source: active = GI50 up to about 1.1 µM and inactive = higher.

Assays:
Test in all cases: NCI tumour cell line growth inhibition, 48 h
OVCAR-5 = tested on: OVCAR-5
SNB-75 = tested on: SNB-75
OVCAR-8 = tested on: OVCAR-8
HOP-92 = tested on: HOP-92
NCI-H226 = tested on: NCI-H226
OVCAR-3 = tested on: OVCAR-3
HT-29 = tested on: HT-29
M14 = tested on: M14
KM12 = tested on: KM12
NCI/ADR-RES = tested on: NCI/ADR-RES
SK-MEL-28 = tested on: SK-MEL-28
MCF7 = tested on: MCF7
SF-268 = tested on: SF-268
UO-31 = tested on: UO-31
SNB-19 = tested on: SNB-19
SK-MEL-5 = tested on: SK-MEL-5
HOP-62 = tested on: HOP-62
RXF 393 = tested on: RXF 393
SR = tested on: SR
MDA-MB-435 = tested on: MDA-MB-435
RPMI-8226 = tested on: RPMI-8226
OVCAR-4 = tested on: OVCAR-4
SK-MEL-2 = tested on: SK-MEL-2
SK-OV-3 = tested on: SK-OV-3
786-0 = tested on: 786-0
HCT-116 = tested on: HCT-116
HCT-15 = tested on: HCT-15
DU-145 = tested on: DU-145
COLO 205 = tested on: COLO 205
MDA-N = tested on: MDA-N
MOLT-4 = tested on: MOLT-4
EKVX = tested on: EKVX
NCI-H23 = tested on: NCI-H23
SN12C = tested on: SN12C
IGROV-1 = tested on: IGROV-1
ACHN = tested on: ACHN
UACC-257 = tested on: UACC-257
SF-539 = tested on: SF-539
SF-295 = tested on: SF-295
HL-60 = tested on: HL-60
CCRF-CEM = tested on: CCRF-CEM
Hs-578T = tested on: Hs-578T
TK-10 = tested on: TK-10
PC-3 = tested on: PC-3
NCI-H460 = tested on: NCI-H460
UACC-62 = tested on: UACC-62
K562 = tested on: K562
MDA-MB-231 = tested on: MDA-MB-231
U-251 = tested on: U-251
CAKI-1 = tested on: CAKI-1
Malme-3M = tested on: Malme-3M
HCC 2998 = tested on: HCC 2998
T47D = tested on: T47D
LOX IMVI = tested on: LOX IMVI
A549 = tested on: A549
SW-620 = tested on: SW-620
NCI-H522 = tested on: NCI-H522
A498 = tested on: A498

## O=Cc1[nH]c(=O)[nH]c(=O)c1C(=O)O
OVCAR-5
  GI50: > 100 µM (inactive)
SNB-75
  GI50: 43.8 µM (inactive)
OVCAR-8
  GI50: > 100 µM (inactive)
HOP-92
  GI50: > 100 µM (inactive)
NCI-H226
  GI50: > 100 µM (inactive)
OVCAR-3
  GI50: > 100 µM (inactive)
HT-29
  GI50: > 100 µM (inactive)
M14
  GI50: > 100 µM (inactive)
KM12
  GI50: > 100 µM (inactive)
NCI/ADR-RES
  GI50: > 100 µM (inactive)
SK-MEL-28
  GI50: > 100 µM (inactive)
MCF7
  GI50: > 100 µM (inactive)
SF-268
  GI50: > 100 µM (inactive)
UO-31
  GI50: > 100 µM (inactive)
SNB-19
  GI50: > 100 µM (inactive)
SK-MEL-5
  GI50: > 100 µM (inactive)
HOP-62
  GI50: > 100 µM (inactive)
RXF 393
  GI50: > 100 µM (inactive)
SR
  GI50: > 100 µM (inactive)
MDA-MB-435
  GI50: > 100 µM (inactive)
RPMI-8226
  GI50: > 100 µM (inactive)
OVCAR-4
  GI50: > 100 µM (inactive)
SK-MEL-2
  GI50: > 100 µM (inactive)
SK-OV-3
  GI50: > 100 µM (inactive)
786-0
  GI50: > 100 µM (inactive)
HCT-116
  GI50: > 100 µM (inactive)
HCT-15
  GI50: > 100 µM
DU-145
  GI50: > 100 µM (inactive)
COLO 205
  GI50: > 100 µM (inactive)
MDA-N
  GI50: > 100 µM (inactive)
MOLT-4
  GI50: > 100 µM (inactive)
EKVX
  GI50: > 100 µM (inactive)
NCI-H23
  GI50: > 100 µM (inactive)
SN12C
  GI50: > 100 µM (inactive)
IGROV-1
  GI50: > 100 µM (inactive)
ACHN
  GI50: > 100 µM (inactive)
UACC-257
  GI50: > 100 µM (inactive)
SF-539
  GI50: > 100 µM (inactive)
SF-295
  GI50: > 100 µM (inactive)
HL-60
  GI50: > 100 µM (inactive)
CCRF-CEM
  GI50: > 100 µM (inactive)
Hs-578T
  GI50: > 100 µM (inactive)
TK-10
  GI50: > 100 µM (inactive)
PC-3
  GI50: > 100 µM (inactive)
NCI-H460
  GI50: > 100 µM (inactive)
UACC-62
  GI50: > 100 µM (inactive)
K562
  GI50: > 100 µM (inactive)
MDA-MB-231
  GI50: > 100 µM (inactive)
U-251
  GI50: > 100 µM (inactive)
CAKI-1
  GI50: > 100 µM (inactive)
Malme-3M
  GI50: > 100 µM (inactive)
HCC 2998
  GI50: > 100 µM (inactive)
T47D
  GI50: > 100 µM (inactive)
LOX IMVI
  GI50: > 100 µM (inactive)
A549
  GI50: > 100 µM (inactive)
SW-620
  GI50: > 100 µM (inactive)
NCI-H522
  GI50: > 100 µM (inactive)

## O=C1NC(N2CCCCC2)=N/C1=C\c1ccccc1O
OVCAR-5
  GI50: > 100 µM (inactive)
SNB-75
  GI50: 27.9 µM (inactive)
OVCAR-8
  GI50: > 100 µM (inactive)
HOP-92
  GI50: > 100 µM (inactive)
NCI-H226
  GI50: 36.6 µM (inactive)
OVCAR-3
  GI50: > 100 µM (inactive)
HT-29
  GI50: > 100 µM (inactive)
M14
  GI50: > 100 µM (inactive)
KM12
  GI50: > 100 µM (inactive)
NCI/ADR-RES
  GI50: > 100 µM (inactive)
SK-MEL-28
  GI50: > 100 µM (inactive)
MCF7
  GI50: > 100 µM (inactive)
SF-268
  GI50: > 100 µM (inactive)
UO-31
  GI50: > 100 µM (inactive)
SNB-19
  GI50: > 100 µM (inactive)
SK-MEL-5
  GI50: 50.2 µM (inactive)
HOP-62
  GI50: > 100 µM (inactive)
RXF 393
  GI50: > 100 µM (inactive)
SR
  GI50: > 10 µM (inactive)
MDA-MB-435
  GI50: > 100 µM (inactive)
RPMI-8226
  GI50: > 100 µM (inactive)
OVCAR-4
  GI50: 13 µM (inactive)
SK-MEL-2
  GI50: > 100 µM (inactive)
SK-OV-3
  GI50: > 100 µM (inactive)
A498
  GI50: > 100 µM (inactive)
786-0
  GI50: > 100 µM (inactive)
HCT-116
  GI50: > 100 µM (inactive)
HCT-15
  GI50: > 100 µM
DU-145
  GI50: > 100 µM (inactive)
COLO 205
  GI50: > 100 µM (inactive)
MDA-N
  GI50: > 100 µM (inactive)
MOLT-4
  GI50: > 100 µM (inactive)
EKVX
  GI50: > 100 µM (inactive)
NCI-H23
  GI50: > 100 µM (inactive)
SN12C
  GI50: > 100 µM (inactive)
IGROV-1
  GI50: > 100 µM (inactive)
ACHN
  GI50: > 100 µM (inactive)
UACC-257
  GI50: > 100 µM (inactive)
SF-539
  GI50: 37.1 µM (inactive)
SF-295
  GI50: > 100 µM (inactive)
HL-60
  GI50: 43.5 µM (inactive)
CCRF-CEM
  GI50: > 100 µM (inactive)
Hs-578T
  GI50: 77.3 µM (inactive)
TK-10
  GI50: > 100 µM (inactive)
PC-3
  GI50: > 100 µM (inactive)
K562
  GI50: > 100 µM (inactive)
MDA-MB-231
  GI50: > 100 µM (inactive)
U-251
  GI50: > 100 µM (inactive)
CAKI-1
  GI50: > 100 µM (inactive)
Malme-3M
  GI50: 23 µM (inactive)
T47D
  GI50: > 100 µM (inactive)
LOX IMVI
  GI50: > 100 µM (inactive)
A549
  GI50: > 100 µM (inactive)
SW-620
  GI50: > 100 µM (inactive)
NCI-H522
  GI50: 19.8 µM (inactive)

## Fc1ccccc1-c1nn2c(C34CC5CC(CC(C5)C3)C4)nnc2s1
OVCAR-5
  GI50: > 100 µM (inactive)
SNB-75
  GI50: > 100 µM (inactive)
OVCAR-8
  GI50: > 100 µM (inactive)
HOP-92
  GI50: > 100 µM (inactive)
NCI-H226
  GI50: > 100 µM (inactive)
OVCAR-3
  GI50: > 100 µM (inactive)
HT-29
  GI50: > 100 µM (inactive)
M14
  GI50: > 100 µM (inactive)
NCI/ADR-RES
  GI50: > 100 µM (inactive)
SK-MEL-28
  GI50: > 100 µM (inactive)
SF-268
  GI50: > 100 µM (inactive)
UO-31
  GI50: > 100 µM (inactive)
SNB-19
  GI50: > 100 µM (inactive)
SK-MEL-5
  GI50: > 100 µM (inactive)
HOP-62
  GI50: > 100 µM (inactive)
RXF 393
  GI50: > 100 µM (inactive)
SR
  GI50: > 100 µM (inactive)
MDA-MB-435
  GI50: > 100 µM (inactive)
RPMI-8226
  GI50: > 100 µM (inactive)
OVCAR-4
  GI50: > 100 µM (inactive)
SK-MEL-2
  GI50: > 100 µM (inactive)
SK-OV-3
  GI50: > 100 µM (inactive)
A498
  GI50: > 100 µM (inactive)
786-0
  GI50: > 100 µM (inactive)
HCT-116
  GI50: > 100 µM (inactive)
HCT-15
  GI50: > 100 µM
DU-145
  GI50: > 100 µM (inactive)
COLO 205
  GI50: > 100 µM (inactive)
MDA-N
  GI50: > 100 µM (inactive)
MOLT-4
  GI50: > 100 µM (inactive)
EKVX
  GI50: > 100 µM (inactive)
NCI-H23
  GI50: > 100 µM (inactive)
SN12C
  GI50: > 100 µM (inactive)
IGROV-1
  GI50: > 100 µM (inactive)
ACHN
  GI50: > 100 µM (inactive)
UACC-257
  GI50: > 100 µM (inactive)
SF-539
  GI50: > 100 µM (inactive)
SF-295
  GI50: > 100 µM (inactive)
CCRF-CEM
  GI50: > 100 µM (inactive)
Hs-578T
  GI50: > 100 µM (inactive)
PC-3
  GI50: > 100 µM (inactive)
NCI-H460
  GI50: > 100 µM (inactive)
UACC-62
  GI50: > 100 µM (inactive)
K562
  GI50: > 100 µM (inactive)
MDA-MB-231
  GI50: > 100 µM (inactive)
U-251
  GI50: > 100 µM (inactive)
CAKI-1
  GI50: > 100 µM (inactive)
Malme-3M
  GI50: > 100 µM (inactive)
HCC 2998
  GI50: > 100 µM (inactive)
T47D
  GI50: > 100 µM (inactive)
LOX IMVI
  GI50: > 100 µM (inactive)
A549
  GI50: > 100 µM (inactive)
SW-620
  GI50: > 100 µM (inactive)
NCI-H522
  GI50: > 100 µM (inactive)
